Values after ≈ are worked out from the molar mass of the structure shown. Active and inactive are the calls of the source. No cut-off for these calls is given here.
Experiments:
MCF7 [1] = assay: Antiproliferative activity against human MCF7 cells by MTT reduction assay; type: functional, cell-based
ECa-109 cell line = assay: Antiproliferative activity against human EC109 cells; type: functional, cell-based
SMMC-7721 = assay: Antiproliferative activity against human SMMC-7721 cells; type: functional, cell-based
Ehrlich = assay: Cytotoxicity against mouse EAC cells assessed as reduction in cell viability incubated for 2 hrs by trypan blue staining based microscopic analysis; type: functional
MGC-803 = assay: Antiproliferative activity against human MGC-803 cells; type: functional, cell-based
Pseudomonas aeruginosa [2] = assay: Antibacterial activity against multidrug resistant Pseudomonas aeruginosa 025; type: functional
Pseudomonas aeruginosa [3] = assay: Antibacterial activity against Pseudomonas aeruginosa ATCC 27853; type: functional
Pseudomonas aeruginosa [4] = assay: Antibacterial activity against multidrug resistant Pseudomonas aeruginosa 034; type: functional
Pseudomonas aeruginosa [5] = assay: Antibacterial activity against Pseudomonas aeruginosa No.010; type: functional
HCT-116 = assay: Anticancer activity against human HCT-116 cells by MTT assay; type: functional, cell-based
MCF7 [6] = assay: Anticancer activity against human MCF7 cells by MTT assay; type: functional, cell-based
HepG2 [7] = assay: Anticancer activity against human HepG2 cells by MTT assay; type: functional, cell-based
Bacillus subtilis [8] = assay: Antibacterial activity against Bacillus subtilis incubated for 24 to 48 hrs by agar diffusion well method; type: functional; conditions: time 24-48 hrs
Pseudomonas aeruginosa [9] = assay: Antibacterial activity against Pseudomonas aeruginosa ATCC 85327; type: functional
Streptococcus pneumoniae [10] = assay: Antibacterial activity against Streptococcus pneumoniae RCMB 010010 incubated for 24 hrs by agar well diffusion method; type: functional
Streptococcus pneumoniae [11] = assay: Antibacterial activity against Streptococcus pneumoniae incubated for 24 to 48 hrs by agar diffusion well method; type: functional; conditions: time 24-48 hrs
Bacillus subtilis [12] = assay: Antibacterial activity against Bacillus subtilis; type: functional
Escherichia coli [13] = assay: Antibacterial activity against Escherichia coli incubated for 24 to 48 hrs by agar diffusion well method; type: functional; conditions: time 24-48 hrs
Pseudomonas aeruginosa [14] = assay: Antibacterial activity against Pseudomonas aeruginosa incubated for 24 to 48 hrs by agar diffusion well method; type: functional; conditions: time 24-48 hrs
Bacillus subtilis [15] = assay: Antibacterial activity against Bacillus subtilis RCMB 010067 incubated for 24 hrs by agar well diffusion method; type: functional
Escherichia coli [16] = assay: Antimicrobial activity against Escherichia coli ATCC 25922; type: functional
HeLa [17] = assay: Anticancer activity against human HeLa cells by MTT assay; type: functional, cell-based
MCF7 [18] = assay: Antiproliferative activity against human MCF7; type: functional, cell-based
WI-38 = assay: Antiproliferative activity against human WI-38; type: functional, cell-based
Bacillus subtilis [19] = assay: Antibacterial activity against Bacillus subtilis NCIM 2079 measured after 12 hrs; type: functional
Escherichia coli [20] = assay: Antibacterial activity against Escherichia coli RCMB 01100052 incubated for 24 hrs by agar well diffusion method; type: functional
Staphylococcus aureus [21] = assay: Antibacterial activity against Staphylococcus aureus NCIM 2010 measured after 12 hrs; type: functional
Escherichia coli [22] = assay: Antibacterial activity against Escherichia coli by disc diffusion method; type: functional
Escherichia coli [23] = assay: Antibacterial activity against Escherichia coli assessed as zone of inhibition; type: functional
Staphylococcus aureus [24] = assay: Antibacterial activity against Staphylococcus aureus by disc diffusion method; type: functional
Pseudomonas aeruginosa [25] = assay: Antibacterial activity against Pseudomonas aeruginosa by disc diffusion method; type: functional
Escherichia coli [26] = assay: Antibacterial activity against Escherichia coli NCIM 2688 measured after 8 hrs; type: functional
Pseudomonas aeruginosa [27] = assay: Antibacterial activity against Pseudomonas aeruginosa RCMB 010043 incubated for 24 hrs by agar well diffusion method; type: functional
Staphylococcus aureus [28] = assay: Antibacterial activity against Staphylococcus aureus assessed as zone of inhibition; type: functional
Bacillus subtilis [29] = assay: Antibacterial activity against Bacillus subtilis by disc diffusion method; type: functional
Pseudomonas aeruginosa [30] = assay: Antibacterial activity against Pseudomonas aeruginosa NCIM […] measured after 8 hrs; type: functional
MCF7 [31] = assay: cells; type: functional, cell-based; conditions: Homo sapiens
HepG2 [32] = assay: cells; type: functional, cell-based; conditions: Homo sapiens
Leishmania major = assay: Antileishmanial activity against Leishmania major promastigotes incubated for 72 hrs by micrscopic analysis; type: functional
NIH3T3 = assay: Anticancer activity against mouse 3T3 cells measured after 48 hrs by MTT assay; type: functional, cell-based; conditions: NIH3T3, 48 h
HeLa [33] = assay: Anticancer activity against human HeLa cells measured after 48 hrs by MTT assay; type: functional, cell-based
Staphylococcus aureus [34] = assay: Antibacterial activity against Staphylococcus aureus ATCC 29213; type: functional
Escherichia coli [35] = assay: Antibacterial activity against Escherichia coli ATCC 25922; type: functional
Klebsiella pneumoniae [36] = assay: Antibacterial activity against Klebsiella pneumoniae ATCC 700603; type: functional
Staphylococcus aureus [37] = assay: Antibacterial activity against methicillin resistant Staphylococcus aureus ATCC 43300; type: functional
Bacillus pumilus = assay: Antibacterial activity against Bacillus pumilus PTCC 1114; type: functional
Bacillus subtilis [38] = assay: Antibacterial activity against Bacillus subtilis MTCC 441; type: functional
[39] = system: Staphylococcus epidermidis; assay: Antibacterial activity against Staphylococcus epidermidis ATCC 12228; type: functional
Micrococcus luteus = assay: Antibacterial activity against Micrococcus luteus PTCC 1110; type: functional
Enterococcus faecalis = assay: Antibacterial activity against Enterococcus faecalis ATCC 29737; type: functional
Bacillus subtilis [40] = assay: Antibacterial activity against Bacillus subtilis ATCC 465; type: functional
Klebsiella pneumoniae [41] = assay: Antibacterial activity against Klebsiella pneumoniae ATCC 29655; type: functional
Escherichia coli [42] = assay: Antibacterial activity against Escherichia coli MTCC 1689; type: functional
Proteus mirabilis = assay: Antibacterial activity against Proteus mirabilis; type: functional
Staphylococcus aureus [43] = assay: Antibacterial activity against Staphylococcus aureus MTCC 96; type: functional
Staphylococcus aureus [44] = assay: Antibacterial activity against Staphylococcus aureus ATCC 25923; type: functional
Streptococcus mutans = assay: Antibacterial activity against Streptococcus mutans PTCC 1601; type: functional
K562 = assay: Antiproliferative activity against human K562 cells by MTT reduction assay; type: functional, cell-based

## O=c1[nH]cc(F)c(=O)[nH]1 [FLUOROURACIL]
MCF7 [1]
  IC50: 78.3 µM
ECa-109 cell line
  IC50: 10.6 µM
SMMC-7721
  IC50: 9.7 µM
Ehrlich
  ED25: 40 microg/cm3
MGC-803
  IC50: 7.6 µM

## CCn1cc(C(=O)O)c(=O)c2cc(F)c(N3CCNCC3)cc21 [NORFLOXACIN]
Pseudomonas aeruginosa [2]
  MIC: > 64 µg/mL
Pseudomonas aeruginosa [3]
  MIC: 2 µg/mL (≈ 6.26 µM)
Pseudomonas aeruginosa [4]
  MIC: > 64 µg/mL
Pseudomonas aeruginosa [5]
  MIC: 2 µg/mL (≈ 6.26 µM)

## CN1C[C@H](c2ccc(Cl)cc2Cl)[C@@H](C(=O)c2cc3ccccc3[nH]2)C12C(=O)Nc1ccccc12 (some centres not stated)
HCT-116
  IC50: < 1 µM
MCF7 [6]
  IC50: 15 µM
HepG2 [7]
  IC50: > 50 µM

## GENTAMICIN
Bacillus subtilis [8]
  MIC: inactive
Pseudomonas aeruginosa [9]
  MIC: 8 µg/mL
Streptococcus pneumoniae [10]
  MIC: inactive
Streptococcus pneumoniae [11]
  MIC: inactive
Bacillus subtilis [12]
  MIC: 0.125 µg/mL
Escherichia coli [13]
  MIC: 1.95 µg/mL
Pseudomonas aeruginosa [14]
  MIC: 15.6 µg/mL
Bacillus subtilis [15]
  MIC: inactive
Escherichia coli [16]
  MIC: 4 µg/mL

## CN1C[C@@H](c2ccccc2Cl)[C@H](C(=O)c2c(O)c3ccccc3[nH]c2=O)[C@@]12C(=O)Nc1ccccc12
HeLa [17]
  IC50: 10.7 µM

## CN1C(=O)C2(SC[C@@H](C(=O)O)[C@@H]2C(=O)c2ccc(Cl)c(Cl)c2)c2ccccc21 (some centres not stated)
MCF7 [18]
  IC50: 36.3 µM
WI-38
  IC50: 55.1 µM

## CC1(C)S[C@@H]2[C@H](NC(=O)[C@H](N)c3ccccc3)C(=O)N2[C@H]1C(=O)O [AMPICILLIN]
Bacillus subtilis [19]
  MIC90: 10.3 µg/mL (≈ 29.5 µM)
Bacillus subtilis [8]
  MIC: 0.007 µg/mL (≈ 0.02 µM)
Escherichia coli [20]
  MIC: inactive
Staphylococcus aureus [21]
  MIC90: 1 µg/mL (≈ 2.86 µM)
Escherichia coli [22]
  MIC: 100 µg/mL (≈ 286 µM)
Escherichia coli [23]
  diameter of the inhibition zone (DIZ): 6 mm
Staphylococcus aureus [24]
  MIC: 250 µg/mL (≈ 715 µM)
Pseudomonas aeruginosa [25]
  MIC: 100 µg/mL (≈ 286 µM)
Streptococcus pneumoniae [11]
  MIC: 0.015 µg/mL (≈ 0.0429 µM)
Escherichia coli [26]
  MIC90: 1.46 µg/mL (≈ 4.18 µM)
Pseudomonas aeruginosa [27]
  MIC: inactive
Staphylococcus aureus [28]
  diameter of the inhibition zone (DIZ): 6 mm
Bacillus subtilis [29]
  MIC: 250 µg/mL (≈ 715 µM)
Escherichia coli [13]
  MIC: inactive
Pseudomonas aeruginosa [14]
  MIC: inactive
Pseudomonas aeruginosa [30]
  MIC90: 4.36 µg/mL (≈ 12.5 µM)

## CCOC(=O)C1=C(C)NC(=S)NC12C(=O)Nc1c(Cl)cc(Cl)cc12 (configuration not stated)
MCF7 [31]
  IC50: 21.3 µM
HepG2 [32]
  IC50: 28.4 µM

## O=C1/C(=C/c2cccc([N+](=O)[O-])c2)CCC[C@]12[C@H]1CCCN1[C@]1(C(=O)Nc3ccccc31)[C@H]2c1cccc([N+](=O)[O-])c1
Leishmania major
  MIC: 6.8 µM (≈ 3.84 µg/mL)
NIH3T3
  IC50: 19.1 µM
HeLa [33]
  IC50: 4.8 µM

## COc1ccc(C2C3CCCN3C3(C(=O)Nc4ccccc43)C2C(=O)c2ccco2)cc1 (configuration not stated)
Pseudomonas aeruginosa [2]
  MIC: 16 µg/mL (≈ 37.3 µM)
Staphylococcus aureus [34]
  MIC: 64 µg/mL (≈ 149 µM)
Escherichia coli [35]
  MIC: 128 µg/mL (≈ 299 µM)
Pseudomonas aeruginosa [3]
  MIC: 15 µg/mL (≈ 35 µM)
Klebsiella pneumoniae [36]
  MIC: 128 µg/mL (≈ 299 µM)
Pseudomonas aeruginosa [4]
  MIC: 32 µg/mL (≈ 74.7 µM)
Staphylococcus aureus [37]
  MIC: 128 µg/mL (≈ 299 µM)
Pseudomonas aeruginosa [5]
  MIC: 16 µg/mL (≈ 37.3 µM)

## CN(C)[C@@H]1C(O)=C(C(N)=O)C(=O)[C@@]2(O)C(O)=C3C(=O)c4c(O)cccc4[C@@](C)(O)[C@H]3C[C@@H]12 [TETRACYCLINE]
Bacillus pumilus
  MIC: 8 µg/mL (≈ 18 µM)
Bacillus subtilis [38]
  MIC: 10 µg/mL (≈ 22.5 µM)
[39]
  MIC: < 2 µg/mL
Micrococcus luteus
  MIC: 4 µg/mL (≈ 9 µM)
Enterococcus faecalis
  MIC: 8 µg/mL (≈ 18 µM)
Bacillus subtilis [40]
  MIC: 4 µg/mL (≈ 9 µM)
Klebsiella pneumoniae [41]
  MIC: 16 µg/mL (≈ 36 µM)
Escherichia coli [42]
  MIC: 10 µg/mL (≈ 22.5 µM)
Proteus mirabilis
  MIC: 15 µg/mL (≈ 33.8 µM)
Staphylococcus aureus [43]
  MIC: 5 µg/mL (≈ 11.3 µM)
Staphylococcus aureus [44]
  MIC: 4 µg/mL (≈ 9 µM)
Streptococcus mutans
  MIC: 2 µg/mL (≈ 4.5 µM)

## O=C1Nc2ccccc2[C@]12N1CSC[C@H]1[C@H](c1ccc(Br)cc1)[C@]21CCC/C(=C\c2ccc(Br)cc2)C1=O
K562
  IC50: 14.7 µM
MCF7 [1]
  IC50: 15.3 µM

— ChEMBL document CHEMBL5226286, “The application of isatin-based multicomponent-reactions in the quest for new bioactive and druglike molecules” (Eur J Med Chem, 2021)
